This passage reports GI50 and TGI results from PubChem BioAssay (NCI).

Among the test systems are ACHN renal; CAKI-1 renal; DU-145 prostate; HCT-15 colon; OVCAR-5 ovarian; PC-3 prostate; RPMI-8226 leukemia; SK-MEL-2 melanoma; SK-MEL-28 melanoma; SNB-75 CNS.
Common to all, as to test: NCI-60 cell line screen, 48 h

“And” between values parts separate entries of the source, which are not always exact repeats. Equal values may be shown once.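 Five concentrations, 48 hours, 96-well plates. GI50: concentration for 50% inhibition of growth. TGI denotes the concentration required for complete inhibition of growth.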 Some results are limits rather than exact numbers.

For the compound `N#CC1=C(N)Oc2c(ccc3ccccc23)C1c1ccccc1` (centres undefined), the GI50 in the assay with ACHN renal is 0.0681 µM; in the assay with CAKI-1 renal, 0.0283 µM; in the assay with DU-145 prostate, 0.0468 µM; with HCT-15 colon, 0.0478 µM; in the assay with OVCAR-5 ovarian, 0.172 µM; in the assay on PC-3 prostate, 0.0454 µM. For the same compound, the GI50 is 0.0417 µM in the assay with RPMI-8226 leukemia, 0.0517 µM in the assay on SK-MEL-2 melanoma and 0.944 µM in the assay with SK-MEL-28 melanoma. Further, the TGI in the assay with ACHN renal was found to be 14.8 µM; in the assay with CAKI-1 renal, 12.6 µM; in the assay with DU-145 prostate, 12.8 µM; in the assay on HCT-15 colon it was 10.7 µM; with OVCAR-5 ovarian, 17.2 µM; with PC-3 prostate, 16.8 µM. Also, the TGI was determined as 15 µM in the assay with RPMI-8226 leukemia, 12.6 µM in the assay on SK-MEL-2 melanoma and 20.5 µM in the assay on SK-MEL-28 melanoma.

As to `Cc1cc(-c2nc3sccn3c2/C=N/N=C(N)N)c(C)s1`, the GI50 was 19.1 µM in the assay with ACHN renal; 14.2 µM with DU-145 prostate; 16.4 µM with HCT-15 colon; 14 µM in the assay with OVCAR-5 ovarian; 13.4 µM in the assay on PC-3 prostate; 13.3 µM in the assay with RPMI-8226 leukemia. Also, the GI50 with SK-MEL-28 melanoma is 16.5 µM; with SNB-75 CNS, 15 µM. In addition, the TGI is 36.8 µM in the assay on ACHN renal; 27.8 µM in the assay on DU-145 prostate; 30 µM with HCT-15 colon; 26.9 µM in the assay on OVCAR-5 ovarian; 26.3 µM in the assay on PC-3 prostate; 33.2 µM in the assay with RPMI-8226 leukemia. Moreover, the TGI in the assay on SK-MEL-28 melanoma stood at 31.5 µM; in the assay on SNB-75 CNS, 30.2 µM.

`Nc1c2c(c(O)c3c1=C(CO)C=N3)=NCCS2`: the GI50 was 0.269 µM in the assay on ACHN renal; 0.127 µM in the assay on DU-145 prostate; 0.166 µM in the assay with HCT-15 colon; 0.184 µM in the assay with OVCAR-5 ovarian; 0.287 µM with PC-3 prostate; 0.583 µM in the assay with RPMI-8226 leukemia. In addition, the GI50 in the assay with SK-MEL-2 melanoma was 0.25 µM; in the assay on SK-MEL-28 melanoma it was 0.283 µM; with SNB-75 CNS, 0.168 µM. Moreover, the TGI came to 0.844 µM with ACHN renal; 0.253 µM in the assay on DU-145 prostate; 0.381 µM with HCT-15 colon; 0.346 µM in the assay with OVCAR-5 ovarian; 1.05 µM in the assay on PC-3 prostate; 3.12 µM with RPMI-8226 leukemia. Besides, the TGI in the assay on SK-MEL-2 melanoma was found to be 0.658 µM; in the assay with SK-MEL-28 melanoma it was 0.804 µM; in the assay on SNB-75 CNS it was 0.306 µM.

`COC(=O)CC[C@]1(C)O[C@H]2[C@H]([C@@H](C)CCCC(C)=O)OC(=O)[C@@H]2C[C@H]1O`: the GI50 in the assay with ACHN renal is > 100 µM; in the assay on CAKI-1 renal it was 32 µM; with HCT-15 colon, > 100 µM; in the assay with OVCAR-5 ovarian it was > 100 µM; in the assay with PC-3 prostate it was > 100 µM; with RPMI-8226 leukemia, > 100 µM. For the same compound, the GI50 in the assay with SK-MEL-2 melanoma, in the assay with SK-MEL-28 melanoma and in the assay on SNB-75 CNS was > 100 µM in each case. Further, the TGI in the assay with ACHN renal, with CAKI-1 renal, in the assay with HCT-15 colon, in the assay on OVCAR-5 ovarian, in the assay on PC-3 prostate and with RPMI-8226 leukemia was > 100 µM throughout. In addition, the TGI in the assay on SK-MEL-2 melanoma, in the assay with SK-MEL-28 melanoma and in the assay with SNB-75 CNS was > 100 µM throughout.

`C[C@]12CC[C@H](OC3OC(CO)C(O)C(O)C3O)C[C@H]1CC[C@@H]1[C@@H]2CC[C@]2(C)[C@@H](C3=CCOC3=O)CC[C@]12O` (some centres undefined): the GI50 with ACHN renal was 0.183 µM; in the assay with DU-145 prostate, 70.6 µM; with HCT-15 colon it was > 100 µM; in the assay on OVCAR-5 ovarian, > 100 µM; with SK-MEL-2 melanoma, > 100 µM; in the assay with SK-MEL-28 melanoma, > 100 µM. Further, the TGI with ACHN renal was > 100 µM; in the assay with DU-145 prostate it was > 100 µM; in the assay with HCT-15 colon, 50 µM and > 100 µM; in the assay on OVCAR-5 ovarian, > 100 µM; in the assay with PC-3 prostate it was > 100 µM; with RPMI-8226 leukemia, 19.5 µM and > 100 µM. Further, the TGI in the assay with SK-MEL-2 melanoma was 50 µM and > 100 µM; in the assay with SK-MEL-28 melanoma it was 50 µM and > 100 µM; in the assay with SNB-75 CNS, 31.6 µM and > 100 µM.

As for `c1cc(N2CCCN(c3ccc(C4=NCCCN4)cc3)CC2)ccc1C1=NCCCN1`, the GI50 in the assay on ACHN renal was > 100 µM; in the assay on CAKI-1 renal, > 100 µM; in the assay on DU-145 prostate, > 100 µM; in the assay with HCT-15 colon, > 100 µM; with OVCAR-5 ovarian it was > 100 µM; in the assay with PC-3 prostate, 91.9 µM. Moreover, the GI50 in the assay with RPMI-8226 leukemia, in the assay with SK-MEL-28 melanoma and with SNB-75 CNS was > 100 µM throughout. For the same compound, the TGI in the assay on ACHN renal, in the assay on CAKI-1 renal, in the assay with DU-145 prostate, in the assay with HCT-15 colon, with OVCAR-5 ovarian and in the assay on PC-3 prostate was > 100 µM in each case. Further, the TGI in the assay with RPMI-8226 leukemia, with SK-MEL-28 melanoma and with SNB-75 CNS was > 100 µM each time.

For `COc1ccc(NC([Se])=NC23CC4CC(CC(C4)C2)C3)cc1`, the GI50 is 1.99 µM in the assay on ACHN renal; 2.57 µM in the assay with CAKI-1 renal; 3.13 µM in the assay on DU-145 prostate; 1.57 µM with HCT-15 colon; 1.7 µM in the assay on OVCAR-5 ovarian; 0.696 µM in the assay with PC-3 prostate. For the same compound, the GI50 with RPMI-8226 leukemia was 0.845 µM; with SK-MEL-2 melanoma, 2.27 µM; in the assay on SNB-75 CNS it was 1.54 µM. Moreover, the TGI in the assay with ACHN renal turned out to be 4.71 µM; with CAKI-1 renal, 10.2 µM; in the assay with DU-145 prostate it was 11.2 µM; in the assay on HCT-15 colon, 11.1 µM; in the assay on OVCAR-5 ovarian, 4.68 µM; in the assay with PC-3 prostate it was 32.2 µM. In addition, the TGI in the assay on RPMI-8226 leukemia is 3.8 µM; in the assay with SK-MEL-2 melanoma, 7.33 µM; in the assay with SNB-75 CNS, 4.5 µM.

As for `CC1=C(C(=O)Nc2ccc(Cl)c(Cl)c2)C(c2cccc(Cl)c2)NC(=O)N1` (centres undefined), the GI50 in the assay on ACHN renal is 9.07 µM; in the assay on CAKI-1 renal it was 9.42 µM; in the assay with DU-145 prostate it was 7.58 µM; with HCT-15 colon, 9.06 µM; in the assay on OVCAR-5 ovarian, 11.2 µM; in the assay with PC-3 prostate it was > 50 µM. Moreover, the GI50 is > 17 µM in the assay on RPMI-8226 leukemia, 9.95 µM in the assay on SK-MEL-2 melanoma and 9.67 µM with SNB-75 CNS. For the same compound, the TGI is 20.8 µM in the assay with ACHN renal; 19.9 µM in the assay with CAKI-1 renal; 14.3 µM in the assay on DU-145 prostate; 19.2 µM in the assay with HCT-15 colon; 30.9 µM with OVCAR-5 ovarian; > 50 µM in the assay on PC-3 prostate. In addition, the TGI in the assay with RPMI-8226 leukemia is > 30.1 µM; in the assay on SK-MEL-2 melanoma it was 19.3 µM; with SNB-75 CNS it was 28.7 µM.
